What was measured:
hMAO-B = molecular target: T1, hMAO-B (Homo sapiens, UniProt P27338); assay: biochemical; conditions: read-out: % inhibition at 10 µM hMAO-B, kynuramine substrate
T1 construct: purchased Sigma Aldrich; host or cells: insect cells (BTI-TN-5B1-4), recombinant baculovirus
T1 sequence (P27338 1-520): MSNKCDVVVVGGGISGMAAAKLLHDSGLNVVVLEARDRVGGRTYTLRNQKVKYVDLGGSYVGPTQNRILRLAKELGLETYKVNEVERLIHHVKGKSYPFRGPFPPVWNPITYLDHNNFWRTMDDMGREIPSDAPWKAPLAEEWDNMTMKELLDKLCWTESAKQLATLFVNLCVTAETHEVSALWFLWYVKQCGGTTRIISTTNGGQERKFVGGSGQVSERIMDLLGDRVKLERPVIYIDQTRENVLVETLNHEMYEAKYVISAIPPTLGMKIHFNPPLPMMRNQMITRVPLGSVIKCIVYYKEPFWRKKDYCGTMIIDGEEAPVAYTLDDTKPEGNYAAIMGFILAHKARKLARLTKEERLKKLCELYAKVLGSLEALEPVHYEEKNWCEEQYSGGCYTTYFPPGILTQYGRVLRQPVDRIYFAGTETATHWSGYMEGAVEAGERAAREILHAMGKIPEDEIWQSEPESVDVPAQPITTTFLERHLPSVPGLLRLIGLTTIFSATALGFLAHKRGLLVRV
Protocol: (§1) The hMAO inhibitory activities were assessed in microsomal MAO isoforms, prepared from insect cells (BTI-TN-5B1-4) infected with recombinant baculovirus containing cDNA inserts for hMAO-A or hMAO-B, by measuring the enzymatic conversion rates of kynuramine into 4-hydroxyquinoline. […] All assays were performed in sodium phosphate buffer solution 50 mM pH 7.4.
(§2) The percentages of MAO inhibition of each compound were determined from three independent experiments performed in triplicate.

HepG2 cells [1] = assay: Neutral red uptake cytotoxicity assay, HepG2; assay type: cell-based; conditions: HepG2, 24 h; for Top (maximal effect): maximum cell death of fitted curve; for EC50: Homo sapiens, cell death curves 0–2000 µM, read-out: EC50 (half-maximum-effect concentrations)
Protocol: (§3) HepG2 cells were acquired from the American Type Culture Collection (Manassas, VA, USA). Cells were cultured in 75 cm^2 flasks using DMEM—high glucose supplemented with a 10% heat inactivated FBS and 1% penicillin/streptomycin mixture, and maintained in a 5% CO2–95% air atmosphere, at 37 °C, until 80% confluence. Cells were routinely subcultured using trypsin-EDTA and, to avoid phenotypic alterations, used between passages 16 and 22. In all experiments, the cells were seeded at a density of 250,000 cells/cm^2 and used 24 h after seeding.
(§4) Neutral red uptake and resazurin reduction assays were performed after exposure of differentiated SH-SY5Y and HepG2 cells to the drugs under study. To obtain a concentration–response curve, a broad concentration range (0–2000 µM) was investigated, and cytotoxicity was evaluated 24 h after exposure in 96-well cell culture plates. As previously described, neutral red uptake assay is based on the incorporation of neutral red dye into the lysosomes of viable cells and the amount of dye incorporated represents the cells’ lysosomal functionality, and resazurin reduction assay is based on the irreversible reduction of resazurin dye to the fluorescent resorufin product by metabolically active cells.
(§5) Briefly, 24 h after being exposed to different concentrations of the compounds, differentiated SH-SY5Y cells were incubated with either neutral red (50 µg/mL) or resazurin (10 µg/mL) solutions for 90 min, at 37 °C, in a 5% CO2–95% air atmosphere. For HepG2 cells, 24 h after the exposure to the tested drugs, the cells were incubated with either neutral red (50 µg/mL) or resazurin (10 µg/mL) solutions for 45 and 60 min, respectively, at 37 °C, in a 5% CO2–95% air atmosphere.
(§6) In the neutral red uptake assay, at the end of the incubation period, the cell culture medium was removed and a solution of absolute ethyl alcohol/distilled water (1:1) with 5% acetic acid was added to extract the dye absorbed only by the viable cells. The absorbance was measured at 540 nm in a multi-well plate reader (PowerWaveX BioTek Instruments, Winooski, VT, USA). In the resazurin assay, at the end of the incubation period, the fluorescence was measured at 530 nm excitation and 590 nm emission wavelengths in a multi-well plate reader (PowerWaveX BioTek Instruments, Winooski, VT, USA).
(§7) The results were expressed as a percentage of control cells. At least four independent experiments were performed, in triplicate. For differentiated SH-SY5Y cells, the neutral red uptake assay was identified as the most sensitive assay and, therefore, used for the subsequent experiments. On the other hand, for HepG2 cells, the resazurin reduction assay was identified as the most sensitive assay and, therefore, used for the subsequent experiments.

HepG2 cells [2] = assay: Resazurin reduction cytotoxicity assay, HepG2; assay type: cell-based; conditions: HepG2, 24 h; for Top (maximal effect): maximum cell death of fitted curve; for EC50: Homo sapiens, cell death curves 0–2000 µM, read-out: EC50 (half-maximum-effect concentrations)
Protocol: as §3, §4, §5, §6, §7

hMAO-A = molecular target: T2, hMAO-A (Homo sapiens, UniProt P21397); assay: hMAO-A inhibitory activity assay (kynuramine); assay type: biochemical; conditions: read-out: % inhibition at 10 µM hMAO-A, kynuramine substrate
T2 construct: purchased Sigma Aldrich; host or cells: insect cells (BTI-TN-5B1-4), recombinant baculovirus
T2 sequence (P21397 1-527): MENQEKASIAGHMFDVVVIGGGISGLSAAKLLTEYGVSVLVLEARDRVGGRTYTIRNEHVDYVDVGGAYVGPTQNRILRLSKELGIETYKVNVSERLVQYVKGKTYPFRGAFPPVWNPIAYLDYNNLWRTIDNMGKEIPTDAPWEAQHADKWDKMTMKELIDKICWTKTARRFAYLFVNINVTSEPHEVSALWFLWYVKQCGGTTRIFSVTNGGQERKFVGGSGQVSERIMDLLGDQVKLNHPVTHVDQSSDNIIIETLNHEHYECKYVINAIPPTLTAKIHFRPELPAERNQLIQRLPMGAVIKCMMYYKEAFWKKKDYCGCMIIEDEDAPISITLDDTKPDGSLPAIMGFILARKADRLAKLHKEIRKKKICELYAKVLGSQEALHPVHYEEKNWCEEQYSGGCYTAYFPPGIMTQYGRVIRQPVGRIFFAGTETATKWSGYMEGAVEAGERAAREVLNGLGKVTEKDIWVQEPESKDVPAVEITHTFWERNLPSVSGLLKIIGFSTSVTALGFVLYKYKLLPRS
Protocol: as §1, §2

Compound	inhibition at 10 µM (hMAO-B)	cytotoxicity (in words) (HepG2 cells [1]; 0–2000 µM)	cytotoxicity (in words) (HepG2 cells [2]; 0–2000 µM)	inhibition at 10 µM (hMAO-A)	Bottom (baseline) (HepG2 cells [1])	Hill Slope (HepG2 cells [1])	Top (maximal effect) (HepG2 cells [1])	EC50 (HepG2 cells [1])	Bottom (baseline) (HepG2 cells [2])	Hill Slope (HepG2 cells [2])	Top (maximal effect) (HepG2 cells [2])	EC50 (HepG2 cells [2])
COc1cc(CCN)cc(OC)c1OC.Cl [Mescaline, 3,4,5-Trimethoxyphenethylamine hydrochloride]	21.2%	not causing a significant cytotoxicity	not causing a significant cytotoxicity	2.5%	–	–	–	–	–	–	–	–
COc1cc(CCN)c(OC)cc1Br [2C-B, 4-Bromo-2,5-dimethoxy-β-phenethylamine]	27.2%	–	–	17.5%	5.433	5.413	95.01	257 µM	1.072	3.731	89.29	206 µM
COc1cc(CCNCc2ccccc2OC)c(OC)cc1Br [25B-NBOMe, 4-Bromo-2,5-dimethoxy-N-(2-methoxybenzyl)-β-phenethylamine]	33.9%	–	–	15%	4.279	2.442	≈100	34.7 µM	4.552	3.079	89.49	32.8 µM
COc1ccccc1CNCCc1cc(OC)c(OC)c(OC)c1 [Mescaline-NBOMe, 3,4,5-Trimethoxy-N-(2-methoxybenzyl)-β-phenethylamine]	89%	–	–	3.9%	2.853	3.666	98.25	476 µM	−0.3754	3.411	87.43	426 µM
COc1cc([N+](=O)[O-])c(OC)cc1CCNCc1ccccc1OC [25N-NBOMe, 4-Nitro-2-dimethoxy-N-(2-methoxybenzyl)-β-phenethylamine]	25.5%	–	–	8.9%	7.254	6.518	94.13	115 µM	3.464	5.089	87.26	99.7 µM
COc1cc([N+](=O)[O-])c(OC)cc1CCN [2C-N, 2,5-dimethoxy-4-nitrophenethylamine]	18%	–	–	5.8%	7.328	4.340	≈100	960 µM	0.2545	2.334	≈100	834 µM
